What was measured:
[1] = test system: bedstraw; assay: Test B pre/postemergence bedstraw; format: in vivo, Galium aparine
Summary of the method: (§1)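 Response is a visual 0-to-10 score relative to untreated plants, where 0 means no effect and 10 means complete control, taken twelve to sixteen days after application. Treatments went onto soil at planting and onto foliage of 1- to 4-leaf plants, using a surfactant-containing non-phytotoxic solvent.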

[2] = test system: blackgrass; assay: Test B pre/postemergence blackgrass; format: in vivo, Alopecurus myosuroides
Summary of the method: as §1

[3] = test system: surinam grass; assay: Test B pre/postemergence surinam grass; format: in vivo, Brachiaria decumbens
Summary of the method: as §1

[4] = test system: cocklebur; assay: Test B pre/postemergence cocklebur; format: in vivo, Xanthium strumarium
Summary of the method: as §1

[5] = test system: corn; assay: Test B pre/postemergence corn; format: in vivo, Zea mays
Summary of the method: as §1

[6] = test system: crabgrass; assay: Test B pre/postemergence crabgrass; format: in vivo, Digitaria sanguinalis
Summary of the method: as §1

[7] = test system: giant foxtail; assay: Test B pre/postemergence giant foxtail; format: in vivo, Setaria faberii
Summary of the method: as §1

[8] = test system: morningglory; assay: Test B pre/postemergence morningglory; format: in vivo, Ipomoea hederacea
Summary of the method: as §1

[9] = test system: pigweed; assay: Test B pre/postemergence pigweed; format: in vivo, Amaranthus retroflexus
Summary of the method: as §1

[10] = test system: rape; assay: Test B pre/postemergence rape; format: in vivo, Brassica napus
Summary of the method: as §1

[11] = test system: soybean; assay: Test B pre/postemergence soybean; format: in vivo, Glycine max
Summary of the method: as §1

[12] = test system: sugar beet; assay: Test B pre/postemergence sugar beet; format: in vivo, Beta vulgaris
Summary of the method: as §1

[13] = test system: velvetleaf; assay: Test B pre/postemergence velvetleaf; format: in vivo, Abutilon theophrasti
Summary of the method: as §1

[14] = test system: wheat; assay: Test B pre/postemergence wheat; format: in vivo, Triticum aestivum
Summary of the method: as §1

[15] = test system: wild oat; assay: Test B pre/postemergence wild oat; format: in vivo, Avena fatua
Summary of the method: as §1

[16] = test system: purple nutsedge; assay: Test B pre/postemergence purple nutsedge; format: in vivo, Cyperus rotundus
Summary of the method: as §1

[17] = Postemergence, Rate 125 g/ha, scale of 0 to 10 where 0 is no effect and 10 is complete control
[18] = Preemergence, Rate 62 g/ha, scale of 0 to 10 where 0 is no effect and 10 is complete control
[19] = Preemergence, Rate 125 g/ha, 0 is no effect, 10 is complete control
[20] = Preemergence, Rate 250 g/ha, scale 0 to 10, 0 is no effect, 10 is complete control
[21] = Preemergence, Rate 500 g/ha, scale 0 to 10 (0 no effect, 10 complete control)
[22] = Rate 62 g/ha, Postemergence, scale of 0 to 10 where 0 is no effect and 10 is complete control
[23] = Rate 250 g/ha, Postemergence, scale 0 to 10, 0 is no effect, 10 is complete control
[24] = Rate 500 g/ha, Postemergence, scale 0 to 10

## Cc1ccccc1-n1c(=O)on(C(=O)N(c2ccc(Br)cc2)C(C)C)c1=O [Compound 175]
[1]; [17]
  Bedstraw plant response rating: 0
[1]; [18]
  Bedstraw plant response rating: 0
[1]; [19]
  Bedstraw plant response rating (0 to 10 scale): 2
[1]; [20]
  Bedstraw plant response rating: 9
[1]; [21]
  Bedstraw plant response rating: 9
[1]; [22]
  Bedstraw plant response rating: 0
[1]; [23]
  Plant response rating, Bedstraw: 0
[1]; [24]
  Bedstraw plant response rating: 0
[2]; [17]
  Blackgrass plant response rating: 0
[2]; [18]
  Blackgrass plant response rating: 0
[2]; [19]
  Blackgrass plant response rating (0 to 10 scale): 0
[2]; [20]
  Blackgrass plant response rating: 0
[2]; [21]
  Blackgrass plant response rating: 0
[2]; [22]
  Blackgrass plant response rating: 0
[2]; [23]
  Plant response rating, Blackgrass: 0
[2]; [24]
  Blackgrass plant response rating: 0
[3]; [17]
  B. signalgrass plant response rating: 0
[3]; [18]
  B. signalgrass plant response rating: 0
[3]; [19]
  B. signalgrass plant response rating (0 to 10 scale): 0
[3]; [20]
  B. signalgrass plant response rating: 0
[3]; [21]
  B. signalgrass plant response rating: 0
[3]; [22]
  B. signalgrass plant response rating: 0
[3]; [23]
  Plant response rating, B. signalgrass: 0
[3]; Rate 500 g/ha, Postemergence, scale 0 to 10, 0 no effect, 10 complete control
  B. signalgrass plant response rating: 0
[4]; [17]
  Cocklebur plant response rating: 0
[4]; [18]
  Cocklebur plant response rating: 0
[4]; [19]
  Cocklebur plant response rating (0 to 10 scale): 0
[4]; [20]
  Cocklebur plant response rating: 0
[4]; [21]
  Cocklebur plant response rating: 0
[4]; [22]
  Cocklebur plant response rating: 0
[4]; [23]
  Plant response rating, Cocklebur: 2
[4]; [24]
  Cocklebur plant response rating: 3
[5]; [17]
  Corn plant response rating: 0
[5]; [18]
  Corn plant response rating: 0
[5]; [19]
  Corn plant response rating (0 to 10 scale): 0
[5]; [20]
  Corn plant response rating: 0
[5]; [21]
  Corn plant response rating: 0
[5]; [22]
  Corn plant response rating: 0
[5]; [23]
  Plant response rating, Corn: 0
[5]; [24]
  Corn plant response rating: 0
[6]; [17]
  Crabgrass plant response rating: 0
[6]; [18]
  Crabgrass plant response rating: 5
[6]; [19]
  Crabgrass plant response rating (0 to 10 scale): 6
[6]; [20]
  Crabgrass plant response rating: 6
[6]; [21]
  Crabgrass plant response rating: 8
[6]; [22]
  Crabgrass plant response rating: 0
[6]; [23]
  Plant response rating, Crabgrass: 0
[6]; [24]
  Crabgrass plant response rating: 0
[7]; [17]
  Giant foxtail plant response rating: 0
[7]; [18]
  Giant foxtail plant response rating: 5
[7]; [19]
  Giant foxtail plant response rating (0 to 10 scale): 7
[7]; [20]
  Giant foxtail plant response rating: 8
[7]; [21]
  Giant foxtail plant response rating: 8
[7]; [22]
  Giant foxtail plant response rating: 0
[7]; [23]
  Plant response rating, Giant foxtail: 0
[7]; [24]
  Giant foxtail plant response rating: 0
[8]; [17]
  Morningglory plant response rating: 1
[8]; [18]
  Morningglory plant response rating: 0
[8]; [19]
  Morningglory plant response rating (0 to 10 scale): 0
[8]; [20]
  Morningglory plant response rating: 0
[8]; [21]
  Morningglory plant response rating: 0
[8]; [22]
  Morningglory plant response rating: 1
[8]; [23]
  Plant response rating, Morningglory: 3
[8]; [24]
  Morningglory plant response rating: 4
[9]; [17]
  Redroot pigweed plant response rating: 0
[9]; [18]
  Redroot pigweed plant response rating: 0
[9]; [19]
  Redroot pigweed plant response rating (0 to 10 scale): 0
[9]; [20]
  Redroot pigweed plant response rating: 0
[9]; [21]
  Redroot pigweed plant response rating: 0
[9]; [22]
  Redroot pigweed plant response rating: 0
[9]; [23]
  Plant response rating, Redroot pigweed: 0
[9]; [24]
  Redroot pigweed plant response rating: 0
[10]; [17]
  Rape plant response rating: 0
[10]; [18]
  Rape plant response rating: 0
[10]; [19]
  Rape plant response rating (0 to 10 scale): 0
[10]; [20]
  Rape plant response rating: 0
[10]; [21]
  Rape plant response rating: 0
[10]; [22]
  Rape plant response rating: 0
[10]; [23]
  Plant response rating, Rape: 0
[10]; [24]
  Rape plant response rating: 0
[11]; [17]
  Soybean plant response rating: 1
[11]; [18]
  Soybean plant response rating: 0
[11]; [19]
  Soybean plant response rating (0 to 10 scale): 0
[11]; [20]
  Soybean plant response rating: 0
[11]; [21]
  Soybean plant response rating: 0
[11]; [22]
  Soybean plant response rating: 1
[11]; [23]
  Plant response rating, Soybean: 1
[11]; [24]
  Soybean plant response rating: 1
[12]; [17]
  Sugarbeets plant response rating: 0
[12]; [18]
  Sugarbeets plant response rating: 0
[12]; [19]
  Sugarbeets plant response rating (0 to 10 scale): 0
[12]; [20]
  Sugarbeets plant response rating: 0
[12]; [21]
  Sugarbeets plant response rating: 0
[12]; [22]
  Sugarbeets plant response rating: 0
[12]; [23]
  Plant response rating, Sugarbeets: 0
[12]; [24]
  Sugarbeets plant response rating: 0
[13]; [18]
  Velvetleaf plant response rating: 0
[13]; [19]
  Velvetleaf plant response rating (0 to 10 scale): 0
[13]; [20]
  Velvetleaf plant response rating: 0
[13]; [21]
  Velvetleaf plant response rating: 0
[13]; [23]
  Plant response rating, Velvetleaf: 3
[13]; [24]
  Velvetleaf plant response rating: 3
[14]; [18]
  Wheat plant response rating: 0
[14]; [19]
  Wheat plant response rating (0 to 10 scale): 0
[14]; [20]
  Wheat plant response rating: 0
[14]; [21]
  Wheat plant response rating: 0
[14]; [23]
  Plant response rating, Wheat: 0
[14]; [24]
  Wheat plant response rating: 3
[15]; [18]
  Wild oats plant response rating: 0
[15]; [19]
  Wild oats plant response rating (0 to 10 scale): 0
[15]; [20]
  Wild oats plant response rating: 0
[15]; [21]
  Wild oats plant response rating: 0
[15]; [23]
  Plant response rating, Wild oats: 0
[15]; [24]
  Wild oats plant response rating: 0
[16]; [17]
  Nutsedge plant response rating: 0
[16]; [18]
  Nutsedge plant response rating: 0
[16]; [19]
  Nutsedge plant response rating (0 to 10 scale): 0
[16]; [20]
  Nutsedge plant response rating: 3
[16]; [21]
  Nutsedge plant response rating: 3
[16]; [22]
  Nutsedge plant response rating: 0
[16]; [23]
  Plant response rating, Nutsedge: 0
[16]; [24]
  Nutsedge plant response rating: 0
